Measured values from US8663616B2, “Enzymatic peracid generation for use in oral care products” (E I du Pont de Nemours and Company, priority 2010, dated 2014).

Legend:
[1] = Peracetic acid in treatment solution by ABTS absorbance (Example 12); format: biochemical; conditions: 1:100 dilution into ABTS reagent
Excerpt: (§1) The purpose of this example is to show the tooth bleaching effect of enzymatic generated peracetic acid in a one-step application and compare to the performance achieved with chemically derived peracetic acid. Two methods were developed to use a perhydrolytic enzyme (CE-7 perhydrolase) system to achieve the target level of tooth bleaching. The first method (referred to herein as the “one-step approach”) comprises combining different amounts of at least one CE-7 perhydrolase with triacetin (an example of a suitable ester substrate) and hydrogen peroxide to generate peracetic acid using model stained enamel substrates. Bovine enamel incisors were prepared as indicated in Example 1. Stained bovine enamel blocks were hydrated in water at least 1 hr prior to use to stabilize the color of the substrate. The color for each enamel block was measured after hydration prior to the start of the experiment. Three enamel samples were treated for each solution type. The solutions used were a buffer only control, 2.5% H2O2, 1% peracetic acid, a perhydrolase composition including 10 μM EZ-1 (C277S; SEQ ID NO: 424), 100 mM triacetin and 250 mM H2O2 and a no enzyme control of 100 mM triacetin and 250 mM H2O2. All solutions were prepared in 500 mM sodium phosphate buffer, pH 7.2. The high buffer strength was necessary to maintain the 1% peracetic acid solution at neutral pH. All solutions were freshly prepared for each treatment point. The enzyme-triacetin-H2O2 combination and triacetin-H2O2 combination was mixed immediately before enamel exposure. After each treatment step, each enamel block was rinsed with water and a color measurement was obtained. A total treatment time of 61 min was used with durations of exposure of 1 min, 5 min, 10 min, 15 min and 30 min. The concentration of peracetic acid in solution after the 1 min, 10 min and 30 min treatments was evaluated by colorimetric detection of ABTS oxidation.
(§2) Determination of the peracetic acid (PAA) concentration in the reaction mixtures by a colorimetric method was performed according to the method described by Dinu et. al. (supra). A reagent solution of 1 mM 2,2′-azino-bis(3-ethylbenzothiazoline)-6-sulfonate (ABTS), 50 μM potassium iodide in 125 mM potassium citrate buffer at pH 5.0 was prepared. […] The solution was analyzed for absorbance at 405 nm using a Microplate reader. A comparison of relative amounts of peracetic acid in solution was determined by comparing absorbance values directly.

[2] = Peracetic acid vs hydrogen peroxide bleaching of coffee/tea stained bovine enamel (whiteness index); conditions: for ΔWI: 0 to 61 min; for Whiteness Index 0 min: before exposure
Excerpt: This example describes the use of peracetic acid to achieve a bleaching effect on model stained enamel surfaces. Bovine enamel incisors were obtained from SE Dental (Baton Rouge, La.). Teeth were sectioned and cut into enamel slabs approximately 7 mm on each side using a DREMEL® rotary saw (Robert Bosch Power Tool Corporation; Chicago, Ill.) with a diamond blade. The enamel slabs were cleaned and lightly polished to remove surface debris. The enamel was pretreated with a mixture of coffee and tea for 1-5 days in order to stain to a color similar to human stained teeth.
Each enamel block was hydrated in water for at least 1 hr prior to use. Color measurements for the substrate were obtained prior to exposure to test solutions. Solutions of peracetic acid were prepared from a 32% stock in 500 mM sodium phosphate buffer, pH 7.2. A solution of 2.5% H2O2 was also prepared in the same buffer. Multiple enamel blocks were exposed to each solution for 1 min followed by additional exposures of 5 min, 10 min, 15 min and 30 min. For each treatment, a fresh solution of peracetic acid and hydrogen peroxide was prepared from the stock solutions. After each treatment the enamel blocks were rinsed with water and measured with a Konica-Minolta 2600d spectrophotometer.
(§3) Whiteness index (WI) is defined by the International Commission on Illumination (CIE) and described in ASTM method E313-05 and calculated for D65/10 incident light as: WI=Y+800*(0.3138−x)+1700*(0.3310−y) Where Y, x, and y are the luminance factor and the chromaticity coordinates respectively of the enamel substrate.

[3] = One-step bleaching of stained bovine enamel with targeted perhydrolase (Example 13); conditions: 0.1% PAA
Description: as §3
(§4) Bovine enamel incisors were prepared as indicated in Example 1. Stained bovine enamel blocks were hydrated in water at least 1 h prior to use to stabilize the color of the substrate. The color for each enamel block was measured after hydration prior to the start of the experiment. Two enamel samples were treated for each solution type. The solutions used were a buffer only control, 0.1% Peracetic Acid, a perhydrolase composition including 0.52 μM EZ-7 (C277S with enamel binding domain; SEQ ID NO: 429), 100 mM triacetin and 32.6 mM H2O2. All solutions were prepared in 100 mM sodium phosphate buffer, pH 7.2. All solutions were freshly prepared for each treatment point. The enzyme-triacetin-H2O2 combination was mixed immediately before enamel exposure. After each treatment step, each enamel block was rinsed with water and a color measurement was obtained. A treatment time of 30 min was repeated 4 times for each set of enamel substrates. The concentration of peracetic acid in solution after a 30 min treatment was evaluated by colorimetric detection of ABTS oxidation.

[4] = One-step bleaching of stained bovine enamel with perhydrolase system (Example 12)
Excerpt: as §3, §1

[5] = Peracetic acid in treatment solution by ABTS (Example 13); format: biochemical; conditions: after 30 min treatment
Description: as §2, §4

SMILES: CC(=O)OO [PAA, peracetic acid]
- Absorbance 405 nm, 1 min ([1]; peracetic acid at end of 1 min treatment): 2.579
- Absorbance 405 nm, 10 min ([1]; peracetic acid at end of 10 min treatment): 1.863
- Absorbance 405 nm, 30 min ([1]; peracetic acid at end of 30 min treatment): 2.874
- ΔWI ([2]; Table 1, 2.5% H2O2 or 0.5% PAA): 90.8
- Whiteness Index 1 min ([2]; Table 1, 2.5% H2O2 or 0.5% PAA, cumulative exposure 1 min): −111.6
- Whiteness Index 6 min ([2]; Table 1, 2.5% H2O2 or 0.5% PAA, cumulative exposure 6 min): −80.7
- Whiteness Index 16 min ([2]; Table 1, 2.5% H2O2 or 0.5% PAA, cumulative exposure 16 min): −56.5
- Whiteness Index 31 min ([2]; Table 1, 2.5% H2O2 or 0.5% PAA, cumulative exposure 31 min): −44.5
- Whiteness Index 61 min ([2]; Table 1, 2.5% H2O2 or 0.5% PAA, cumulative exposure 61 min): −38.3
- Whiteness Index 0 min ([2]; Table 1, 2.5% H2O2 or 0.5% PAA, 500 mM sodium phosphate pH 7.2): −129.1
- Whiteness Index 1 min ([2]; Table 2, 0.05% PAA): −97.1
- Whiteness Index 6 min ([2]; Table 2, 0.05% PAA): −93.1
- Whiteness Index 16 min ([2]; Table 2, 0.05% PAA): −70.1
- Whiteness Index 31 min ([2]; Table 2, 0.05% PAA): −59.0
- Whiteness Index 61 min ([2]; Table 2, 0.05% PAA): −34.7
- ΔWI ([2]; Table 2, 0.05% PAA): 68.7
- Whiteness Index 0 min ([2]; Table 2, 0.05% PAA): −103.4
- Whiteness Index 1 min ([2]; Table 2, 0.2% PAA): −85.5
- Whiteness Index 6 min ([2]; Table 2, 0.2% PAA): −67.0
- Whiteness Index 16 min ([2]; Table 2, 0.2% PAA): −47.5
- Whiteness Index 31 min ([2]; Table 2, 0.2% PAA): −31.7
- Whiteness Index 61 min ([2]; Table 2, 0.2% PAA): −16.2
- ΔWI ([2]; Table 2, 0.2% PAA): 74.4
- Whiteness Index 0 min ([2]; Table 2, 0.2% PAA): −90.6
- Whiteness Index 1 min ([2]; Table 2, 0.5% PAA): −86.6
- Whiteness Index 6 min ([2]; Table 2, 0.5% PAA): −64.1
- Whiteness Index 16 min ([2]; Table 2, 0.5% PAA): −46.4
- Whiteness Index 31 min ([2]; Table 2, 0.5% PAA): −32.7
- Whiteness Index 61 min ([2]; Table 2, 0.5% PAA): −24.7
- ΔWI ([2]; Table 2, 0.5% PAA): 72.8
- Whiteness Index 0 min ([2]; Table 2, 0.5% PAA): −97.5
- Whiteness Index 1 min ([2]; Table 2, 1% PAA): −89.3
- Whiteness Index 16 min ([2]; Table 2, 1% PAA): −36.0
- Whiteness Index 31 min ([2]; Table 2, 1% PAA): −20.6
- Whiteness Index 61 min ([2]; Table 2, 1% PAA): −5.1
- ΔWI ([2]; Table 2, 1% PAA): 97.7
- Whiteness Index 0 min ([2]; Table 2, 1% PAA): −102.8
- bleaching of stained enamel (in words) ([2]; compared to buffer and hydrogen peroxide controls): effective bleaching agent
- Whiteness Index 30 min [3]: −101.9
- Whiteness Index 60 min [3]: −91.9
- Whiteness Index 90 min [3]: −80.2
- Whiteness Index 120 min [3]: −70.8
- ΔWI ([3]; 0 to 120 min): 55.0
- Whiteness Index 0 min ([3]; before treatment, 100 mM sodium phosphate pH 7.2, average of two substrates): −125.8
- Whiteness Index 0 min ([4]; before treatment, 2.5% H2O2, 100 mM triacetin/250 mM H2O2, 1% PAA, 10 μM EZ-1/100 mM triacetin/250 mM H2O2, pH 7.2): −145.7
- ΔWI ([4]; one-step, 0 to 61 min): 86.3
- Whiteness Index 1 min ([4]; one-step, cumulative treatment 1 min): −119.6
- Whiteness Index 6 min ([4]; one-step, cumulative treatment 6 min): −73.4
- Whiteness Index 16 min ([4]; one-step, cumulative treatment 16 min): −62.9
- Whiteness Index 31 min ([4]; one-step, cumulative treatment 31 min): −59.0
- Whiteness Index 61 min ([4]; one-step, cumulative treatment 61 min): −59.4
- PAA (ppm) [5]: 920 ppm
- Absorbance 405 nm Tooth2 ([5]; 1:10 dilution into ABTS reagent): 1.043
- Absorbance 405 nm Tooth1 ([5]; 1:10 dilution into ABTS reagent, 0.1% PAA or 0.52 μM EZ-7/100 mM triacetin/32.6 mM H2O2): 1.103
